This data set can be described thus: Stability of DOPE in DOTMA/DOPE liposomes as a function of pH (HPLC lipid recovery, 37° C.). To be noted: under all conditions (pH 4-7), up to 6 weeks. The data set is classed as physicochemical. How it is done:
The stability of DOPE in DOTMA/DOPE liposomes was investigated after adjusting the pH to different values between pH 7 and pH 4. For pH 7, 10 mM HEPES buffer was used. For all lower pH values, acetic acid buffers (all 10 mM) were used (see Table 1). R6 glass type I vials were filled with 2 mL of the liposomes dispersion and stored in a stability chamber at 37° C. pH values were measured by potentiometry using a WTW pH-meter inoLab pH 7310, Weilheim, Germany.
The lipid stability was tested at different time points up to 6 weeks after preparation of the liposomes by measuring the lipid concentration in the liposome preparation using a HPLC system (Agilent Technologies 1200 equipped with DAD and ELSD detectors, Santa Clara, Calif., USA).
Plotted is the normalized recovery of DOPE (in percent) from the DOTMA/DOPE liposomes. […] In contrast, at pH 5, already degradation with a recovery of only 80% of the initial value was observed.

On to `CCCCCCCC/C=C\CCCCCCCCOCC(C[N+](C)(C)C)OCCCCCCCC/C=C\CCCCCCCC` (stereo not shown) [DOTMA, 1,2-di-O-octadecenyl-3-trimethylammoniumpropane], for which the “degradation of DOTMA in DOTMA/DOPE liposomes” value was “no indication for degradation”.

The values are drawn from patent US11173120B2, “Stable formulations of lipids and liposomes” (BioNTech RNA Pharmaceuticals GmbH, priority 2014, dated 2021).
